In assay [1] the test system is rabbit serum obtained by immunizing a rabbit with the SARS-CoV strain Frankfurt 1. The format is binding. Further details: Binding of a rabbit serum to linear peptides / Binding of a rabbit serum to looped peptides / Rabbit serum linear peptides / Rabbit serum looped peptides / Binding of a rabbit serum to linear peptides of protein N of SARS-CoV Urbani (Rabbit serum linear peptides) / Binding of a rabbit serum to looped/cyclic peptides of protein N of SARS-CoV Urbani (Rabbit serum looped peptides): unit not given here.

For assay [2], the system named is control sera (pooled serum of ten healthy LUMC hospital workers; commercial negative donor pooled serum from the Dutch bloodbank). The format is binding, human. Set-up: Binding of Control serum LUMC to linear peptides / Binding of Control serum Blood-bank to linear peptides / Binding of Control serum LUMC to looped peptides / Binding of Control Serum Blood-Bank to Looped peptides / Binding of Control serum LUMC to linear peptides of the protein M of SARS-CoV Urbani / Binding of Control serum Blood-bank to linear peptides of the protein M of SARS-CoV Urbani / Binding of Control serum LUMC to looped peptides of the protein M of SARS-CoV Urbani / Binding of Control Serum Blood-Bank to Looped peptides of the protein M of SARS-CoV Urbani: unit not given here.

The test system of assay [3] is antibodies in sera from SARS patients (sera 1a, 1b, 2, 6, 37, 62, London, SARS-yellow, SARS-green). The format is binding, human. Further details: Binding of serum 6 to linear peptides of protein X1 of SARS-CoV Urbani / Binding of serum 37 to linear peptides of protein X1 of SARS-CoV Urbani / Binding of serum 6 to looped/cyclic peptide (PEPSCAN-ELISA) / Binding of serum 37 to looped/cyclic peptide (PEPSCAN-ELISA) / Binding of serum 37 to looped/cyclic peptides of protein X1 of SARS-CoV Urbani / Binding of serum 6 to linear peptides of protein X2 / Binding of serum 37 to linear peptides of protein X2 / Binding of serum 37 to looped/cyclic peptides of protein X2 of SARS-CoV Urbani / Binding of serum 6 to linear peptides of protein M of SARS-CoV Urbani / Binding of serum 37 to linear peptides of protein M of SARS-CoV Urbani / Binding of serum 6 to looped/cyclic peptides of protein M of SARS-CoV Urbani / Binding of serum 37 to looped/cyclic peptides of protein M of SARS-CoV Urbani / Binding of serum 6 to linear peptides of protein X3 of SARS-CoV Urbani / Binding of serum 37 to linear peptides of protein X3 of SARS-CoV Urbani / Binding of serum 37 to looped/cyclic peptides of protein X3 of SARS-CoV Urbani / Binding of serum 6 to linear peptides of protein X4 of SARS-CoV Urbani / Binding of serum 37 to linear peptides of protein X4 of SARS-CoV Urbani / Binding of serum 37 to looped/cyclic peptides of protein X4 of SARS-CoV Urbani / Binding of serum 6 to linear peptides of protein X5 of SARS-CoV Urbani / Binding of serum 37 to linear peptides of protein X5 of SARS-CoV Urbani / Binding of serum 37 to looped/cyclic peptides of protein X5 of SARS-CoV Urbani / Binding of serum 6 to linear peptides of protein N of SARS-CoV Urbani / Binding of serum 37 to linear peptides of protein N of SARS-CoV Urbani / Binding of serum 6 to linear peptide (PEPSCAN-ELISA) / Binding of serum 1a to looped/cyclic peptides of protein N of SARS-CoV Urbani / Binding of serum 1b to looped/cyclic peptides of protein N of SARS-CoV Urbani / Binding of serum 2 to looped/cyclic peptides of protein N of SARS-CoV Urbani / Binding of serum 6 to looped/cyclic peptides of protein N of SARS-CoV Urbani / Binding of serum 37 to looped/cyclic peptides of protein N of SARS-CoV Urbani / Binding of serum 62 to looped/cyclic peptides of protein N of SARS-CoV Urbani / Binding of serum London to looped/cyclic peptides of protein N of SARS-CoV Urbani / Binding of serum SARS-green to looped/cyclic peptides of protein N of SARS-CoV Urbani: unit not given here.

LNKRWQLALYKGFQF: the “Recognition of the peptide by the rabbit serum” value in assay [1] was “recognized”. Moreover, in assay [2], the “Binding of Control Serum Blood-Bank to Looped peptides” value is recorded as 0.6, the “Binding of Control serum Blood-bank to linear peptides” value was 0.8, the “Binding of Control serum LUMC to linear peptides” value was found to be 0.6 and the “Binding of Control serum LUMC to looped peptides” value worked out at 0.6. Moreover, in assay [3], the “Binding of serum 1a to linear peptides of protein X1 of SARS-CoV Urbani” value is given as 0.6, the “Binding of serum 1a to looped/cyclic peptide (PEPSCAN-ELISA)” value amounted to 0.6, the “Binding of serum 1b to linear peptides of protein X1 of SARS-CoV Urbani” value is 0.7 and the “Binding of serum 1b to looped/cyclic peptide (PEPSCAN-ELISA)” value came out at 0.4. In assay [3], the “Binding of serum 2 to linear peptides of protein X1 of SARS-CoV Urbani” value is reported as 0.8, the “Binding of serum 2 to looped/cyclic peptide (PEPSCAN-ELISA)” value worked out at 0.5, the “Binding of serum 6 to linear peptides of protein X1 of SARS-CoV Urbani” value turned out to be 0.8 and the “Binding of serum 6 to looped/cyclic peptide (PEPSCAN-ELISA)” value worked out at 0.5. For the same sequence, in assay [3], the “Binding of serum 37 to linear peptides of protein X1 of SARS-CoV Urbani” value was 0.6, the “Binding of serum 37 to looped/cyclic peptide (PEPSCAN-ELISA)” value was found to be 0.5, the “Binding of serum 62 to linear peptides of protein X1 of SARS-CoV Urbani” value amounted to 0.6 and the “Binding of serum 62 to looped/cyclic peptide (PEPSCAN-ELISA)” value was found to be 0.6. Also, in assay [3], the “Binding of serum London to linear peptides of protein X1 of SARS-CoV Urbani” value amounted to 0.3, the “Binding of serum London to looped/cyclic peptide (PEPSCAN-ELISA)” value was 0.3, the “Binding of serum SARS-green to linear peptides of protein X1 of SARS-CoV Urbani” value is on record as 0.3 and the “Binding of serum SARS-green to looped/cyclic peptide (PEPSCAN-ELISA)” value is given as 0.1. In assay [3], the “Binding of serum SARS-yellow to linear peptides of protein X1 of SARS-CoV Urbani” value came to 0.3 and the “Binding of serum SARS-yellow to looped/cyclic peptide (PEPSCAN-ELISA)” value is on record as 0.4.

As to LNVPLRGTIVTRPLM, in assay [1], the “Rabbit serum linear peptides” value was determined as 0.2 and the “Rabbit serum looped peptides” value is 0.4. In assay [2], the “Binding of Control Serum Blood-Bank to Looped peptides of the protein M of SARS-CoV Urbani” value was 0.6, the “Binding of Control serum Blood-bank to linear peptides of the protein M of SARS-CoV Urbani” value amounted to 0.7, the “Binding of Control serum LUMC to linear peptides of the protein M of SARS-CoV Urbani” value is recorded as 0.5 and the “Binding of Control serum LUMC to looped peptides of the protein M of SARS-CoV Urbani” value came out at 0.7. In assay [3], the “Binding of serum 1a to linear peptides of protein M of SARS-CoV Urbani” value is 0.7, the “Binding of serum 1b to linear peptides of protein M of SARS-CoV Urbani” value is reported as 0.5, the “Binding of serum 2 to linear peptides of protein M of SARS-CoV Urbani” value worked out at 0.6 and the “Binding of serum 6 to linear peptides of protein M of SARS-CoV Urbani” value was found to be 0.5. In assay [3], the “Binding of serum 37 to linear peptides of protein M of SARS-CoV Urbani” value amounted to 0.5, the “Binding of serum 62 to linear peptides of protein M of SARS-CoV Urbani” value amounted to 0.5, the “Binding of serum London to linear peptides of protein M of SARS-CoV Urbani” value came out at 0.4 and the “Binding of serum SARS-green to linear peptides of protein M of SARS-CoV Urbani” value is on record as 0.4. Moreover, in assay [3], the “Binding of serum SARS-yellow to linear peptides of protein M of SARS-CoV Urbani” value amounted to 0.1; the “Recognition of the peptide by sera of SARS-CoV infected individuals, and form (linear, looped/cyclic) in which it is recognized” value was “recognized in looped/cyclic form”.

Regarding LPKEITVATSRTLSY, in assay [1], the “Rabbit serum linear peptides” value came to 0.2 and the “Rabbit serum looped peptides” value amounted to 0.2. Further, in assay [2], the “Binding of Control Serum Blood-Bank to Looped peptides of the protein M of SARS-CoV Urbani” value is recorded as 0.6, the “Binding of Control serum Blood-bank to linear peptides of the protein M of SARS-CoV Urbani” value is on record as 0.8, the “Binding of Control serum LUMC to linear peptides of the protein M of SARS-CoV Urbani” value turned out to be 0.7 and the “Binding of Control serum LUMC to looped peptides of the protein M of SARS-CoV Urbani” value stood at 0.6. In addition, in assay [3], the “Binding of serum 1a to linear peptides of protein M of SARS-CoV Urbani” value was 0.7, the “Binding of serum 1a to looped/cyclic peptides of protein M of SARS-CoV Urbani” value was determined as 0.6, the “Binding of serum 1b to linear peptides of protein M of SARS-CoV Urbani” value is listed as 0.5 and the “Binding of serum 1b to looped/cyclic peptides of protein M of SARS-CoV Urbani” value came out at 0.4. Besides, in assay [3], the “Binding of serum 2 to linear peptides of protein M of SARS-CoV Urbani” value is reported as 0.6, the “Binding of serum 2 to looped/cyclic peptides of protein M of SARS-CoV Urbani” value is reported as 0.6, the “Binding of serum 6 to linear peptides of protein M of SARS-CoV Urbani” value came to 0.4 and the “Binding of serum 6 to looped/cyclic peptides of protein M of SARS-CoV Urbani” value is listed as 0.6. In assay [3], the “Binding of serum 37 to linear peptides of protein M of SARS-CoV Urbani” value was 0.4, the “Binding of serum 37 to looped/cyclic peptides of protein M of SARS-CoV Urbani” value is 0.6, the “Binding of serum 62 to linear peptides of protein M of SARS-CoV Urbani” value worked out at 0.5 and the “Binding of serum 62 to looped/cyclic peptides of protein M of SARS-CoV Urbani” value stood at 0.5. In addition, in assay [3], the “Binding of serum London to linear peptides of protein M of SARS-CoV Urbani” value was determined as 0.3, the “Binding of serum London to looped/cyclic peptides of protein M of SARS-CoV Urbani” value is 0.2, the “Binding of serum SARS-green to linear peptides of protein M of SARS-CoV Urbani” value is on record as 0.4 and the “Binding of serum SARS-green to looped/cyclic peptides of protein M of SARS-CoV Urbani” value stood at 0.3. Besides, in assay [3], the “Binding of serum SARS-yellow to linear peptides of protein M of SARS-CoV Urbani” value is recorded as 0.2 and the “Binding of serum SARS-yellow to looped/cyclic peptides of protein M of SARS-CoV Urbani” value is reported as 0.5.

Turning to LQASLPFGWLVIGVA, in assay [1], the “Binding of a rabbit serum to linear peptides” value is reported as 0.5 and the “Binding of a rabbit serum to looped peptides” value stood at 0.4. Also, in assay [2], the “Binding of Control Serum Blood-Bank to Looped peptides” value amounted to 0.6, the “Binding of Control serum Blood-bank to linear peptides” value was 0.8, the “Binding of Control serum LUMC to linear peptides” value stood at 0.5 and the “Binding of Control serum LUMC to looped peptides” value is 0.5. In assay [3], the “Binding of serum 1a to linear peptides of protein X1 of SARS-CoV Urbani” value is 0.7, the “Binding of serum 1a to looped/cyclic peptide (PEPSCAN-ELISA)” value was 0.4, the “Binding of serum 1b to linear peptides of protein X1 of SARS-CoV Urbani” value was determined as 0.6 and the “Binding of serum 1b to looped/cyclic peptide (PEPSCAN-ELISA)” value stood at 0.3. In addition, in assay [3], the “Binding of serum 2 to linear peptides of protein X1 of SARS-CoV Urbani” value was determined as 0.6, the “Binding of serum 2 to looped/cyclic peptide (PEPSCAN-ELISA)” value worked out at 0.3, the “Binding of serum 6 to linear peptides of protein X1 of SARS-CoV Urbani” value is 0.4 and the “Binding of serum 6 to looped/cyclic peptide (PEPSCAN-ELISA)” value is on record as 0.3. Besides, in assay [3], the “Binding of serum 37 to linear peptides of protein X1 of SARS-CoV Urbani” value stood at 0.7, the “Binding of serum 37 to looped/cyclic peptide (PEPSCAN-ELISA)” value is on record as 0.4, the “Binding of serum 62 to linear peptides of protein X1 of SARS-CoV Urbani” value stood at 0.7 and the “Binding of serum 62 to looped/cyclic peptide (PEPSCAN-ELISA)” value came out at 0.5. For the same sequence, in assay [3], the “Binding of serum London to linear peptides of protein X1 of SARS-CoV Urbani” value is reported as 0.2, the “Binding of serum London to looped/cyclic peptide (PEPSCAN-ELISA)” value came out at 0.2, the “Binding of serum SARS-green to linear peptides of protein X1 of SARS-CoV Urbani” value stood at 0.3 and the “Binding of serum SARS-green to looped/cyclic peptide (PEPSCAN-ELISA)” value was 0.2. In addition, in assay [3], the “Binding of serum SARS-yellow to linear peptides of protein X1 of SARS-CoV Urbani” value was found to be 0.6 and the “Binding of serum SARS-yellow to looped/cyclic peptide (PEPSCAN-ELISA)” value stood at 0.4.

The values above are taken from patent US20070128217A1 (priority 2003, published 2007).
